Structures can show the parent of a compound that is named as a salt.

The melting point is the temperature, or range, at which the solid turns liquid. In turn, `COc1cc2[nH]c(N(C)Cc3cccc(CN4CCC(O)C4)c3)nc(=O)c2c(OC)c1OC` (stereo not drawn) [Example 51, 2-{[3-(3-Hydroxy-pyrrolidin-1-ylmethyl)-benzyl]-methyl-amino}-5,6,7-trimethoxy-1H-quinazolin-4-one] had a melting point of 174.3 to 176.4 °C.
Compound `COc1ccc(CN(C)c2nc(=O)c3c(C)c(OC)c(OC)cc3[nH]2)cc1OCC(CO)CO` [Example 6, 2-{[3-(3-Hydroxy-2-hydroxymethyl-propoxy)-4-methoxy-benzyl]-methyl-amino}-6,7-dimethoxy-5-methyl-1H-quinazolin-4-one] came in with a melting point of 210.8 to 215.4 °C.
With `COc1cc2[nH]c(N(C)Cc3cccc(Oc4ncccn4)c3)nc(=O)c2c(OC)c1OC` [Example F-16, 5,6,7-Trimethoxy-2-{methyl-[3-(pyrimidin-2-yloxy)-benzyl]-amino}-1H-quinazolin-4-one] the figure was 191 to 192.9 °C; with `COc1cc2[nH]c(N(C)Cc3cccc(C(C)N4CCCC4)n3)nc(=O)c2c(C)c1OC` (stereo not drawn) [Example 275, 6,7-Dimethoxy-5-methyl-2-{methyl-[6-(1-pyrrolidin-1-yl-ethyl)-pyridin-2-ylmethyl]-amino}-1H-quinazolin-4-one], 75.4 to 85.6 °C; with `COc1cc2[nH]c(N(C)Cc3cccc(N4C[C@@H](O)CC4=O)c3)nc(=O)c2c(C)c1OC` [Example 27, 2-{[3-((S)-4-Hydroxy-2-oxo-pyrrolidin-1-yl)-benzyl]-methyl-amino}-6,7-dimethoxy-5-methyl-1H-quinazolin-4-one], 230.8 to 232.5 °C.
Under `COc1cc2[nH]c(N(C)Cc3cccc(CNC4CC4)c3)nc(=O)c2c(C)c1OC` [Example 66, 2-[(3-Cyclopropylaminomethyl-benzyl)-methyl-amino]-6,7-dimethoxy-5-methyl-1H-quinazolin-4-one] stands 144.5 to 147.6 °C.
With `COc1cc2[nH]c(N(C)Cc3cccc(N4C(=O)CN(C)C4=O)c3)nc(=O)c2c(C)c1OC` [Example 60, 3-(3-{[(6,7-Dimethoxy-5-methyl-4-oxo-1,4-dihydro-quinazolin-2-yl)-methyl-amino]-methyl-}-phenyl)-1-methyl-imidazolidine-2,4-dione] the figure was 209.3 to 210.8 °C; with `COc1cc2[nH]c(N(C)Cc3cc(N(C)C4=NCCC4)ccc3F)nc(=O)c2c(O)c1OC` [Example 211, 2-({-[(4,5-Dihydro-3H-pyrrol-2-yl)-methyl-amino]-2-fluoro-benzyl}-methylamino)-5-hydroxy-6,7-dimethoxy-1H-quinazolin-4-one], 264.9 to 267 °C; with `COCCOc1cccc(CN(C)c2nc(=O)c3c(C)c(OC)c(OC)cc3[nH]2)c1` [Example F-10, 6,7-Dimethoxy-2-{[3-(2-methoxy-ethoxy)-benzyl]-methyl-amino}-5-methyl-1H-quinazolin-4-one], 144.8 to 145.9 °C.
Compound `CCN(CCOC)Cc1cccc(CN(C)c2nc(=O)c3c(C)c(OC)c(OC)cc3[nH]2)c1` [Example 121, 2-[(3-{[Ethyl(2-methoxy-ethyl)-amino]-methyl}-benzyl)-methyl-azmino]-6,7-dimethoxy-5-methyl-1H-quinazolin-4-one] yielded a melting point of 121.8 to 122.3 °C.
With `COc1cc2[nH]c(N(C)Cc3cccc(NC4=NCCC4)c3)nc(=O)c2c(C)c1OC` [Example G-42, 2-{[3-(4,5-Dihydro-3H-pyrrol-2-ylamino)-benzyl]-methyl-amino}-6,7-dimethoxy-5-methyl-1H-quinazolin-4-one] the figure was 175.4 to 177.2 °C; with `COc1cc2[nH]c(N(C)Cc3cccc(N4C(=O)CCC4=O)c3)nc(=O)c2c(C)c1OC` [Example 259], 198.6 to 199.8 °C.
As for `COc1cc2[nH]c(N(C)Cc3cccc(N4C(=O)CCC4=O)c3)nc(=O)c2c(OC)c1OC` [Example 260, 1-(3-{[Methyl-(5,6,7-trimethoxy-4-oxo-1,4-dihydro-quinazolin-2-yl)-amino]-methyl}-phenyl)-pyrrolidine-2,5-dione], the melting point lay within 125.5 to 128.5 °C.
On to `COc1cc2[nH]c(N(C)Cc3cccc(NC4=NCCN4)c3)nc(=O)c2cc1OC` [Example 89, 2-{[3-(4,5-Dihydro-1H-imidazol-2-ylamino)-benzyl]-methyl-amino}-6,7-dimethoxy-1H-quinazolin-4-one], for which the melting point was 163.8 to 176.9 °C.
With `CCN(CCO)Cc1ccc(CN(C)c2nc(=O)c3c(C)c(OC)c(OC)cc3[nH]2)cc1` [Example 30, 2-[(4-{[Ethyl-(2-hydroxy-ethyl)-amino]-methyl}-benzyl)-methyl-amino]-6,7-dimethoxy-5-methyl-1H-quinazolin-4-one] the figure was 142 to 145 °C; with `COc1cc2[nH]c(N(C)Cc3ccc(CN(C)S(C)(=O)=O)cc3)nc(=O)c2c(C)c1OC` [Example 10, N-(4-{[(6,7-Dimethoxy-5-methyl-4-oxo-1,4-dihydro-quinazolin-2-yl)-methyl-amino]-methyl}-benzyl)-N-methyl-methanesulfonamide], 238 to 240 °C.
Under `COc1cc2[nH]c(N(C)Cc3cccc(Nc4nc(C)cc(Cl)n4)c3)nc(=O)c2c(OC)c1OC` [Example 219, 2-{[3-(4-Chloro-6-methyl-pyrimidin-2-ylamino)-benzyl]-methyl-amino}-5,6,7-trimethoxy-1H-quinazolin-4-one] stands 191.3 to 192.8 °C; under `COc1cc2[nH]c(N(C)Cc3cccc(CN4CCC4)c3)nc(=O)c2c(OC)c1OC` [Example 47, 2-[(3-Azetidin-1-ylmethyl-benzyl)-methyl-amino]-5,6,7-trimethoxy-1H-quinazolin-4-one], 131.3 to 133.1 °C.
Compound `COC(=O)N(C)C(C)c1cccc(CN(C)c2nc(=O)c3c(C)c(OC)c(OC)cc3[nH]2)c1` (stereo not drawn) [Example 5] showed a melting point of 117.9 to 120.1 °C.
With `COc1cc2[nH]c(N(C)Cc3cccc(/N=C(\C(C)C)N(C)C)c3)nc(=O)c2c(OC)c1OC` [Example 198, N,N-Dimethyl-N′-(3-{[methyl-(5,6,7-trimethoxy-4-oxo-1,4-dihydro-quinazolin-2-yl)-amino]-methyl}-phenyl)-isobutyramidine] the figure was 148 to 150 °C; with `COc1cc2c(=O)nc(N(C)Cc3cccc(/N=C(\C)N(C)C)c3)[nH]c2cc1Cl` [Example 74, N′-(3-{[(7-Chloro-6-methoxy-4-oxo-1,4-dihydro-quinazolin-2-yl)-methyl-amino]-methyl}-phenyl)-N,N-dimethyl-acetamide], 185.4 to 191.9 °C.
`COc1cc2[nH]c(N(C)Cc3cccc(C4=NCCN4CCO)c3)nc(=O)c2c(OC)c1OC` (as salt: TFA) [Example 245, 2-({3-[1-(2-Hydroxy-ethy)-4,5-dihydro-1H-imidazol-2-yl]-benzyl}-methyl-amino)-5,6,7-trimethoxy-1H-quinazolin-4-one]: the melting point fell in the range of 106.1 to 116.6 °C.
With `COc1cc2[nH]c(N(C)Cc3cccc(N4CCN(C)C4=O)c3)nc(=O)c2c(C)c1OC` [Example 262, 6,7-Dimethoxy-5-methyl-2-{methyl-[3-(3-methyl-2-oxo-imidazolidin-1-yl)-benzyl]-amino}-1H-quinazolin-4-one] the figure was 230 to 230.5 °C.
With `COc1cc2[nH]c(N(C)Cc3cccc(NC4=NCCC4)c3)nc(=O)c2c(OC)c1OC` [Example G-43, 2-{[3-(4,5-Dihydro-3H-pyrrol-2-ylamino)-benzyl]-methyl-amino}-5,6,7-trimethoxy-1H-quinazolin-4-one] the figure was 207 to 209 °C; with `COc1cc2[nH]c(N(C)Cc3cccc(N4CCNC4=O)c3)nc(=O)c2c(C)c1OC` [Example 76, 6,7-Dimethoxy-5-methyl-2-{methyl-[3-(2-oxo-imidazolidin-1-yl)-benzyl]-amino}-1H-quinazolin-4-one], 265 to 266 °C.
`COc1cc2[nH]c(N(C)Cc3cccc(N)c3)nc(=O)c2c(C)c1OC` [Example B-1, 2-[(3-Amino-benzyl)-methyl-amino]-6,7-dimethoxy-5-methyl-1H-quinazolin-4-one] registered a melting point of 268 to 269.5 °C.
`COc1cc2[nH]c(N(C)Cc3cccc(OCCO)c3)nc(=O)c2c(C)c1OC` [Example F-9, 2-{[3-(2-Hydroxy-ethoxy)-benzyl]-methyl-amino}-6,7-dimethoxy-5-methyl-1H-quinazolin-4-one] had a melting point of 180.5 to 183.1 °C.
With `CNC(=O)c1cccc(CN(C)c2nc(=O)c3c(OC)c(OC)c(OC)cc3[nH]2)c1` [Example 137, N-Methyl-3-{[methyl-(5,6,7-trimethoxy-4-oxo-1,4-dihydro-quinazolin-2-yl)-amino]-methyl}-benzamide] the figure was 217.9 to 219.1 °C; with `COc1cc2[nH]c(N(C)Cc3cccc(CN4CCC(O)CC4)c3)nc(=O)c2c(OC)c1OC` [Example 39, 2-{[3-(4-Hydroxy-piperidin-1-ylmethyl)-benzyl]-methyl-amino}-5,6,7-trimethoxy-1H-quinazolin-4-one], 97.5 to 104.7 °C; with `COc1cc2[nH]c(N(C)Cc3cccc(S(=O)(=O)N(C)C)c3)nc(=O)c2c(OC)c1OC` [Example 130], 199.9 to 204 °C.
Under `COc1cc2[nH]c(N(C)Cc3cccc(N4CCCS4(=O)=O)c3)nc(=O)c2c(C)c1OC` [Example 252, 2-{[3-(1,1-Dioxo-1λ6-isothiazolidin-2-yl)-benzyl]-methyl-amino}-6,7-dimethoxy-5-methyl-1H-quinazolin-4-one] stands 226 to 228.5 °C; under `COc1cc2[nH]c(N(C)Cc3cccc(/N=C4/CCCN4C)c3)nc(=O)c2c(OC)c1OC` [Example 205, 5,6,7-Trimethoxy-2-(methyl-{3-[1-methyl-pyrrolidin-(2Z)-ylideneamino]-benzyl}-amino)-1H-quinazolin-4-one], 130 to 133 °C; under `COc1cc2[nH]c(N(C)Cc3cccc(N4CCC(OC)C4=O)c3)nc(=O)c2c(OC)c1OC` (stereo not drawn) [Example 20, 5,6,7-Trimethoxy-2-{[3-(3-methoxy-2-oxo-prrolidin-1-yl)-benzyl]-methyl-amino}-1H-quinazolin-4-one], 90.2 to 94.7 °C.

The values above are taken from US7244738B2, “Arylamine-substituted quinazolinone compounds useful as alpha 1A/B adrenergic receptor antagonists” (Roche Palo Alto LLC, priority 2003, dated 2007).
